{"source": "patent US12150922B1", "about": "“Methods of inhibiting cyclooxygenase (COX) using tolterodine” (priority 2023, dated 2024)", "key": {"COX-2": {"molecular_target": "T1, COX-2 (Homo sapiens, UniProt P35354)", "T1 construct": "purchased Cayman Chemical (Ann Arbor, MI, USA)", "T1 sequence (P35354 18-604)": "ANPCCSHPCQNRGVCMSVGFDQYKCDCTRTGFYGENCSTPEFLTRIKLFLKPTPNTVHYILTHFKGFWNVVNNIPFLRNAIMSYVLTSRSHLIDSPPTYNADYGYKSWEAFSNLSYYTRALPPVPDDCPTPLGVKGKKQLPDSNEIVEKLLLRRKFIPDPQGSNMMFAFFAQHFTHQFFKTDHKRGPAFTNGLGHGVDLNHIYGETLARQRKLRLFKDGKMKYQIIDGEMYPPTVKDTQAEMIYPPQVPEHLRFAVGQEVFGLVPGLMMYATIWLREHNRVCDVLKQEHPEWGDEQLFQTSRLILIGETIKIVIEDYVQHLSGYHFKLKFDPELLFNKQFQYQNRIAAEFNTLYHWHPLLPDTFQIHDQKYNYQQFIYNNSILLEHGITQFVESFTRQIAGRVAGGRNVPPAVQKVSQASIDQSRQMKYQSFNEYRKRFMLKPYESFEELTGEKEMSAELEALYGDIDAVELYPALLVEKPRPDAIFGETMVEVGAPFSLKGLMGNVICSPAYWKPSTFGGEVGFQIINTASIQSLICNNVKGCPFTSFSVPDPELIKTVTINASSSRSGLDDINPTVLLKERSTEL", "assay": "biochemical", "description": "(§1) The Schrodinger Maestro molecular modeling suite (Schrodinger LLC, New York, USA) was utilized for all stages of virtual screening modeling. QikProp software tools offer a fast, accurate, and user-friendly approach for predicting molecular characteristics. This software evaluates a given molecule's properties and compares them with those of substances present in 95% of commonly prescribed drugs. A series of graded filters is employed to identify potential interactions within the active site of the receptor and the ligand. This process involves constructing a grid with varying field sets that accurately score the ligand poses while simultaneously depicting the structure and attributes of the receptor. COX-1 and COX-2 inhibitor screening assay kits were obtained from Cayman Chemical (Ann Arbor, MI, USA).\n(§2) The inhibitory effects of tolterodine on COX-1 and COX-2 were determined using COX inhibitor screening test kits, testing each compound's capacity to inhibit the conversion of arachidonic acid to prostaglandin. In test tubes, 25 mM Tris-HCl, pH 8.0, containing 5 mM EDTA, phenol, and 1 mM hematin was added. Tolterodine was dissolved in DMSO and added in concentrations ranging from […]. […]\n(§3) Three separate experiments were used to calculate the IC50 values. The selectivity index was calculated as follows: Selectivity Index (SI)=IC50 COX-1/IC50 COX-2"}, "COX-1": {"molecular_target": "COX-1 (UniProt P05979)", "sequence (P05979 whole entry)": "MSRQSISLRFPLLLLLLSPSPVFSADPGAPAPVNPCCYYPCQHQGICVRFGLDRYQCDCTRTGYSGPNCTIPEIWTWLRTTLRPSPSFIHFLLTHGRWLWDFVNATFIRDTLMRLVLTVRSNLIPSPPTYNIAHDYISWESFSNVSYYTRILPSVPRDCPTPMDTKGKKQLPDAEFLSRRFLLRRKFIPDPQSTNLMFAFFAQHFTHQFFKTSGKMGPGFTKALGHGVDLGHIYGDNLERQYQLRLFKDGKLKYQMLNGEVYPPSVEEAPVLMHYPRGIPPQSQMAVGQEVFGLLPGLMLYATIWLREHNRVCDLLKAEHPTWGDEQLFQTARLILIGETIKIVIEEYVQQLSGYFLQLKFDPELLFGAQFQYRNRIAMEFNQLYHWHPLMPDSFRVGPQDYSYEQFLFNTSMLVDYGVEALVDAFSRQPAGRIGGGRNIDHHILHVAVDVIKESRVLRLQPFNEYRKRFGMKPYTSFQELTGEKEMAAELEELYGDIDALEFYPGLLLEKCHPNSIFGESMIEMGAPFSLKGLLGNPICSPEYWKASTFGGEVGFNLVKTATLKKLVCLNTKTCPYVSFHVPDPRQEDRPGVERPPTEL", "format": "biochemical", "conditions": "conversion of arachidonic acid to prostaglandin; 10 min preincubation at 37° C.; three separate experiments", "description": "as §1, §2, §3"}}, "note": "pIC50: −log10 of the molar value. Where “and” joins values, the source holds several entries; their conditions need not be identical. Equal values may be shown once.", "data": [{"smiles": "Cc1ccc(O)c([C@H](CCN(C(C)C)C(C)C)c2ccccc2)c1", "note": "[Tolterodine]", "values": [{"measurement": "SI (Selectivity Index = IC50 COX-1/IC50 COX-2)", "setting": "COX-2", "value": 14.3}, {"measurement": "pIC50", "setting": "COX-2; conversion of arachidonic acid to prostaglandin, 10 min preincubation at 37° C., three separate experiments", "value": "~6.49 and 6.49"}, {"measurement": "pIC50", "setting": "COX-1", "value": "~5.34 and 5.34"}]}]}
